Measured values published in ChEMBL document CHEMBL1153461, “Inhibitory effects of flavonoids isolated from Fragaria ananassa Duch on IgE-mediated degranulation in rat basophilic leukemia RBL-2H3” (Bioorg Med Chem, 2009).
Active and inactive are the calls of the source. The rule behind the calls is not given here.

Columns and labels:
RBL-2H3 [1] = assay: Antiallergic activity in IgE-sensitized rat RBL2H3 cells assessed as inhibition of DNP-BSA-stimulated beta hexaminidase release relative to control; format: functional, cell-based
RBL-2H3 [2] = assay: Inhibition of ERK phosphorylation in DNP-BSA-stimulated rat RBL2H3 cells by Western blotting; format: cell-based
RBL-2H3 [3] = assay: Antiallergic activity in IgE-sensitized rat RBL2H3 cells assessed as inhibition of A-23187-stimulated beta hexaminidase release relative to control; format: functional, cell-based
RBL-2H3 [4] = assay: Antiallergic activity in IgE-sensitized DNP-BSA-stimulated rat RBL2H3 cells assessed as decrease in intracellular Ca2+ level by fluorimetry; format: functional, cell-based
[5] = molecular target: T1, 1-phosphatidylinositol 4,5-bisphosphate phosphodiesterase gamma-1 (Rattus norvegicus) (UniProt P10686); assay: Inhibition of PLCgamma1 phosphorylation in DNP-BSA-stimulated rat RBL2H3 cells by Western blotting; format: cell-based; details: RBL-2H3
T1 sequence (whole entry): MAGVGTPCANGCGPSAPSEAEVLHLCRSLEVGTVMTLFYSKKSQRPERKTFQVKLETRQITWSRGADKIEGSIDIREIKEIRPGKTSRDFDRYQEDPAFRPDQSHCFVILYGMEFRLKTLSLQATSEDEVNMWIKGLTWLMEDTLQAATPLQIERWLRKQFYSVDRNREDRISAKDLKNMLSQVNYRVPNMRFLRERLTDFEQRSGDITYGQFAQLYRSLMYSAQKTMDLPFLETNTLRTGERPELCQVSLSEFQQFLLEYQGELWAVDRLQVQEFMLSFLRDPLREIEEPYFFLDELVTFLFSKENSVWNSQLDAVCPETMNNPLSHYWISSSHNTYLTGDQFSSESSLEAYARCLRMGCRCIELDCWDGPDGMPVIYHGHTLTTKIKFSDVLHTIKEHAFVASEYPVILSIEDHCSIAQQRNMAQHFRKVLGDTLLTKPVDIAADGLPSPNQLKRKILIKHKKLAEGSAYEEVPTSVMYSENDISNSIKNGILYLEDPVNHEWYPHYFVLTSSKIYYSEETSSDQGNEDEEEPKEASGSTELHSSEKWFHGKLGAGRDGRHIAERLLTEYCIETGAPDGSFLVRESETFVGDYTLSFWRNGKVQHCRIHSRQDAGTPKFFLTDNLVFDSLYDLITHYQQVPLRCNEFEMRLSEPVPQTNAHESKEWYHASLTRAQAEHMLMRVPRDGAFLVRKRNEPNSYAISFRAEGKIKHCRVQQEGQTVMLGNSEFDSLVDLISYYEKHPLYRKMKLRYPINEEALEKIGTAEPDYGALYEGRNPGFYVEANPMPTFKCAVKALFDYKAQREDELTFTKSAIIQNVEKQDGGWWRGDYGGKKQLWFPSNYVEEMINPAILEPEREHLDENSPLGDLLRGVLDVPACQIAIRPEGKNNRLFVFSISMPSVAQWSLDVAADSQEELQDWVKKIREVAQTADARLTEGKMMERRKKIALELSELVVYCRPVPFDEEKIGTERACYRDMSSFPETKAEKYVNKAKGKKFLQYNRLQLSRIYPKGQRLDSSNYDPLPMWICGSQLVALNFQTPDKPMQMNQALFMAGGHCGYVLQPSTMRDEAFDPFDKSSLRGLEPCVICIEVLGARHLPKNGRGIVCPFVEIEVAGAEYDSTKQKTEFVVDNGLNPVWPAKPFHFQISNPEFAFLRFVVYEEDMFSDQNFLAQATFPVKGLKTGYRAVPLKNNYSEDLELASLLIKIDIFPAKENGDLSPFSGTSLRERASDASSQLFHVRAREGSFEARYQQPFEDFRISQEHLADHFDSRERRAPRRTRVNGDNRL

[6] = molecular target: Tyrosine-protein kinase SYK (Rattus norvegicus) (UniProt Q64725); assay: Inhibition of Syk phosphorylation in DNP-BSA-stimulated rat RBL2H3 cells by Western blotting; format: cell-based; details: RBL-2H3
Tyrosine-protein kinase SYK (Rattus norvegicus), sequence (Q64725 whole entry, looked up): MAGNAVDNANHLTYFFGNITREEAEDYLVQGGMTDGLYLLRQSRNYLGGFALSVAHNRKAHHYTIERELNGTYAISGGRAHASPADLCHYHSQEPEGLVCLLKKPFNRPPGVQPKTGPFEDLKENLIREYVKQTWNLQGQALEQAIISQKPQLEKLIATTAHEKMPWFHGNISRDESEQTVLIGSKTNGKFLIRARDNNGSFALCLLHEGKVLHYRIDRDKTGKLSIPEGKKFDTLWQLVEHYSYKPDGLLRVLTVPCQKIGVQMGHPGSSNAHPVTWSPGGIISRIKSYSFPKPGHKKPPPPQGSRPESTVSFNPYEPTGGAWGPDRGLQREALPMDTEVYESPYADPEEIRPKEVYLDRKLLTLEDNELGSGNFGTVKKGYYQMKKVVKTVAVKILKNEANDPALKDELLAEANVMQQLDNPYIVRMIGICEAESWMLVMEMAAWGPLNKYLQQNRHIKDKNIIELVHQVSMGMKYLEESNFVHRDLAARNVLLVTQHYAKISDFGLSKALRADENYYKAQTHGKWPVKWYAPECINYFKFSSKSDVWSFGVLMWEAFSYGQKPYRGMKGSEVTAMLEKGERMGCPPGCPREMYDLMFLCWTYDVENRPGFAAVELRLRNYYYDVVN

RBL-2H3 [7] = assay: Inhibition of p38 phosphorylation in DNP-BSA-stimulated rat RBL2H3 cells by Western blotting; format: cell-based
[8] = test system: Radical scavenging activity; assay: Antioxidant activity assessed as radical DPPH scavenging activity; format: functional
[9] = molecular target: T2, 1-phosphatidylinositol 4,5-bisphosphate phosphodiesterase gamma-2 (Rattus norvegicus) (UniProt P24135); assay: Inhibition of PLCgamma2 phosphorylation in DNP-BSA-stimulated rat RBL2H3 cells by Western blotting; format: cell-based; details: RBL-2H3
T2 sequence (whole entry): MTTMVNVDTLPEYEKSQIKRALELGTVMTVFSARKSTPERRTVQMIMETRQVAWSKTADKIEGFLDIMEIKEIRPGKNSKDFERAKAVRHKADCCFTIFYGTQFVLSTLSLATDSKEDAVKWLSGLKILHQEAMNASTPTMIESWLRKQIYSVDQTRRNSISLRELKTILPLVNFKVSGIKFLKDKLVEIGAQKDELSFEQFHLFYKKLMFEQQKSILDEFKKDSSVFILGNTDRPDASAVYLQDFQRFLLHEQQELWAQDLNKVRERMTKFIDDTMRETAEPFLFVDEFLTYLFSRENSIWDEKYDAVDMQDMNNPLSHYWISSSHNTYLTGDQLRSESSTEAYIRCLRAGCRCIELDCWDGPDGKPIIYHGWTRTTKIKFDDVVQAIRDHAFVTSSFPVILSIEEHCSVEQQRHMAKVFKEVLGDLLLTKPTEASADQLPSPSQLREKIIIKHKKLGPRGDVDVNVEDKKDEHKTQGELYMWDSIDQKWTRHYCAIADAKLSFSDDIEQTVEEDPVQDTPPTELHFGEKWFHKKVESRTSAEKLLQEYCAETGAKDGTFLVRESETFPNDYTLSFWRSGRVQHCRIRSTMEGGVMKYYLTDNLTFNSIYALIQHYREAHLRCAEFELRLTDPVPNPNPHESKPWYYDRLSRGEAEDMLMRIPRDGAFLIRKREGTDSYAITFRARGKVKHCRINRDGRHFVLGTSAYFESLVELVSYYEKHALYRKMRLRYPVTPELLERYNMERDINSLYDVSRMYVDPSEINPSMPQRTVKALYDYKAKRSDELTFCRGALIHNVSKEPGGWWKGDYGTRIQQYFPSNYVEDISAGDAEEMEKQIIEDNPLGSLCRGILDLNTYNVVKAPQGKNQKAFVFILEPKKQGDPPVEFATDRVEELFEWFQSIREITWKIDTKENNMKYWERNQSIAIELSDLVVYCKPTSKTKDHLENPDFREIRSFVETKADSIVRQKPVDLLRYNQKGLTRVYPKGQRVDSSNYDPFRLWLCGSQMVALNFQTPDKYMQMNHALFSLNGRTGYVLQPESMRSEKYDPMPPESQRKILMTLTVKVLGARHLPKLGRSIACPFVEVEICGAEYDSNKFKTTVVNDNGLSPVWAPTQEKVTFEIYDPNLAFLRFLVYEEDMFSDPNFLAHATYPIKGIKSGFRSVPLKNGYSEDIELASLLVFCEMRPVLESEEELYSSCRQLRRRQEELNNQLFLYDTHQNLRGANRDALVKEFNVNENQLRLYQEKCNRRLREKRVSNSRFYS

RBL-2H3 [10] = assay: Inhibition of JNK phosphorylation in DNP-BSA-stimulated rat RBL2H3 cells by Western blotting; format: cell-based
RBL-2H3 [11] = assay: Inhibition of ERK in DNP-BSA-stimulated rat RBL2H3 cells assessed as reduction in cPLA2 phosphorylation by Western blotting; format: cell-based
RBL-2H3 [12] = assay: Antioxidant activity in IgE-sensitized rat RBL2H3 cells assessed as reduction in DNP-BSA-mediated intracellular ROS production at 50 uM after 30 mins by fluorimetry; format: functional, cell-based

Q: With `O=c1c(O)c(-c2ccc(O)cc2)oc2cc(O)cc(O)c12` as the compound, how does the inhibition (RBL-2H3 [1]) read?
A: Active

Q: What about the Activity (RBL-2H3 [2]) of the same compound?
A: Active

Q: And the Activity (RBL-2H3 [3])?
A: Active

Q: What about the Activity (RBL-2H3 [4]) of the same compound?
A: Active

Q: And the Activity [5]?
A: Active

Q: And the Activity [6]?
A: Active

Q: What about the Activity (RBL-2H3 [7]) of the same compound?
A: Active

Q: What about the ED50 [8] of the same compound?
A: < 100 µM

Q: And the Activity [9]?
A: Active

Q: What about the Activity (RBL-2H3 [10]) of the same compound?
A: Active

Q: What about the Activity (RBL-2H3 [11]) of the same compound?
A: Active

Q: Which results are given for `O=C(/C=C/c1ccccc1)Oc1cc(O)c2c(=O)cc(-c3ccccc3)oc2c1`?
A: Activity (RBL-2H3 [12]): Active; inhibition (RBL-2H3 [1]): Active; Activity (RBL-2H3 [2]): Active; Activity (RBL-2H3 [3]): Active; Activity (RBL-2H3 [4]): Active; Activity [5]: inactive; Activity [6]: inactive; Activity (RBL-2H3 [7]): Active; ED50 [8]: < 100 µM; Activity [9]: inactive; Activity (RBL-2H3 [10]): Active; Activity (RBL-2H3 [11]): Active

Q: What does the source list for `O=C(O[C@@H]1Cc2c(O)cc(O)cc2O[C@@H]1c1cc(O)c(O)c(O)c1)c1cc(O)c(O)c(O)c1`?
A: Activity [5]: inactive; Activity [6]: inactive; ED50 [8]: 7 µM; Activity [9]: inactive

Q: How did the ED50 [8] turn out when VITAMIN E was run?
A: 78 µM

Q: Which Activity (RBL-2H3 [12]) does the source give for `O=C(/C=C/c1ccc(O)cc1)OC[C@H]1O[C@@H](Oc2c(-c3ccc(O)cc3)oc3cc(O)cc(O)c3c2=O)[C@H](O)[C@@H](O)[C@@H]1O` here?
A: Active

Q: And the inhibition (RBL-2H3 [1])?
A: Active

Q: What about the Activity (RBL-2H3 [2]) of the same compound?
A: Active

Q: What about the Activity (RBL-2H3 [3]) of the same compound?
A: Active

Q: What about the Activity (RBL-2H3 [4]) of the same compound?
A: Active

Q: What about the Activity [5] of the same compound?
A: inactive

Q: And the Activity [6]?
A: inactive

Q: What about the Activity (RBL-2H3 [7]) of the same compound?
A: Active

Q: And the ED50 [8]?
A: < 100 µM

Q: And the Activity [9]?
A: inactive

Q: What about the Activity (RBL-2H3 [10]) of the same compound?
A: Active

Q: What about the Activity (RBL-2H3 [11]) of the same compound?
A: Active

Q: With `O=C1O[C@H]([C@@H](O)CO)C(O)=C1O` as the compound, how does the ED50 [8] read?
A: 18 µM

Q: Which results are given for `O=c1cc(-c2ccccc2)oc2cc(O)cc(O)c12`?
A: inhibition (RBL-2H3 [1]): Active; Activity (RBL-2H3 [2]): inactive; Activity (RBL-2H3 [3]): Active; Activity (RBL-2H3 [4]): Active; Activity [5]: inactive; Activity [6]: inactive; Activity (RBL-2H3 [7]): inactive; ED50 [8]: < 100 µM; Activity [9]: inactive; Activity (RBL-2H3 [10]): inactive
